In brackets after ≈: the same amount, converted by molar mass. Like-named read-outs stand apart in the source and are kept apart here.
Columns and labels:
Assay in all cases: MIC determination by in vitro antifungal assay
Format in all cases: cell-based, Candida auris
C. auris AR Bank #387 = tested on: C. auris AR Bank #387
Experimental: (§1) The antifungal agent amphotericin B (AmB) was purchased from VWR (Radnor PA, USA). AmB was dissolved in DMSO at a final concentration of 5 mg/mL and was stored at −20° C., protected from light. Candida albicans American Type Culture Collection (ATCC) 10231 (strain A), C. albicans ATCC 64124 (B), and C. albicans ATCC MYA-2876 (C) were obtained from Utah State University. C. albicans ATCC 90819 (D), C. albicans ATCC MYA-2310 (E), C. albicans ATCC MYA-1237 (F), C. albicans ATCC MYA-1003 (G), Candida glabrata ATCC 2001 (H), Candida krusei ATCC 6258 (I), Candida parapsilosis ATCC 22019 (J), Cryptococcus neoformans ATCC MYA-895 (M), Aspergillus terreus ATCC MYA-3633 (N), and Aspergillus flavus ATCC MYA-3631 (0) were obtained from the American Type Culture Collection (ATCC; Manassas, VA, USA). Aspergillus nidulans ATCC 38163 (P) was obtained from University of Kentucky. Clinically derived Aspergillus fumigatus NRRL 163 (Q), A. fumigatus NRRL 5109 (R), and A. fumigatus NRRL 6113 (S) were obtained from Northern Regional Research Laboratory (NRRL). Candida auris 384 (K), C. auris 390 (L), and fungal strains 381-400 (including 10 C. auris (AR Bank #381-390), 3 Candida duobushaemulonii (AR Bank #391, AR Bank #392, and AR Bank #394), 2 Candida haemulonii (AR Bank #393 and AR Bank #395), 1 Kodameae ohmeri (AR Bank #396), 1 C. krusei (AR Bank #397), 1 Candida lusitaniae (AR Bank #398), and 2 Saccharomyces cerevisiae strains (AR Bank #399 and AR Bank #400)) were part of a larger fungal library from the AR Bank maintained by the Centers for Disease Control and Prevention (CDC; Atlanta, GA, USA). Filamentous fungi and yeasts were cultivated at 35° C. in RPMI 1640 medium (with L-glutamine, without sodium bicarbonate, Sigma-Aldrich, St. Louis, MO) buffered to a pH of 7.0 with 0.165 M morpholinepropanesulfonic acid (MOPS) buffer (Sigma-Aldrich). For cytotoxicity assays, HepG2 and the mouse macrophage cell line J774A.1 were obtained from University of Kentucky. The human embryonic kidney cell line, HEK-293, was bought from the ATCC. Mammalian cells were grown in Dulbecco's Modified Eagle's Medium (DMEM) (from VWR) with 10% fetal bovine serum (FBS) (from VWR) and 1% Pen/Strep (from ATCC). Cell lines were cultured at 37° C. with 5% CO2 and passaged by trypsinization with 0.05% trypsin: 0.53 mM EDTA (from Sigma-Aldrich).
(§2) From the actively growing yeast culture, 100 µL were then transferred to 900 μL of RPMI 1640 medium and re-adjusted to achieve OD600 of 0.12 (˜1×10^6 CFU/mL). The cell suspension was further diluted to achieve 1:100 in RPMI 1640 medium.

C. auris AR Bank #388 = tested on: C. auris AR Bank #388
Experimental: as §1, §2

C. auris AR Bank #381 = tested on: C. auris AR Bank #381
Experimental: as §1, §2

C. auris AR Bank #386 = tested on: C. auris AR Bank #386
Experimental: as §1, §2

C. auris AR Bank #385 = tested on: C. auris AR Bank #385
Experimental: as §1, §2

C. auris AR Bank #383 = tested on: C. auris AR Bank #383
Experimental: as §1, §2

C. auris AR Bank #389 = tested on: C. auris AR Bank #389
Experimental: as §1, §2

C. auris AR Bank #382 = tested on: C. auris AR Bank #382
Experimental: as §1, §2

[1] = tested on: C. auris strain AR Bank #390 (L)
Experimental: as §1, §2
Finally, the activity of these monohydrazides was explored against […] non-Candida strains: Cryptococcus neoformans ATCC MYA-895 (M), Aspergillus terreus ATCC MYA-3633 (N), Aspergillus flavus ATCC MYA-3631 (O), Aspergillus nidulans ATCC 38163 (P), Aspergillus fumigatus NRRL 163 (Q), A. fumigatus NRRL 5109 (R), and A. fumigatus NRRL 6113 (S) (Tables 1A and 1B). The double dilution method was used with concentrations ranging from 0.06 to 31.3 j·tg mL^−1 for monohydrazides 1a-9j, and the commercially available positive antifungal control amphotericin B (AmB).

[2] = Candidozyma auris, C. auris AR Bank #387, read-out: MIC
[3] = Candidozyma auris, C. auris AR Bank #388, read-out: MIC
[4] = Candidozyma auris, C. auris AR Bank #381, read-out: MIC
[5] = Candidozyma auris, C. auris AR Bank #386, read-out: MIC
[6] = Candidozyma auris, C. auris AR Bank #385, read-out: MIC
[7] = Candidozyma auris, C. auris AR Bank #383, read-out: MIC
[8] = Candidozyma auris, C. auris AR Bank #389, read-out: MIC
[9] = Candidozyma auris, C. auris AR Bank #382, read-out: MIC
[10] = Candidozyma auris, C. auris AR Bank #390 (L), read-out: MIC
[11] = Candidozyma auris, strain L = C. auris AR Bank # 0390 (Tables 1A/1B), read-out: MIC
[12] = C. auris AR Bank # 387 (Table 2B)
[13] = C. auris AR Bank # 388 (Table 2B)
[14] = C. auris AR Bank # 381 (Table 2B)
[15] = C. auris AR Bank # 386 (Table 2B)
[16] = C. auris AR Bank # 385 (Table 2B)
[17] = C. auris AR Bank # 383 (Table 2B)
[18] = C. auris AR Bank # 389 (Table 2B)
[19] = C. auris AR Bank # 382 (Table 2B)
[20] = C. auris AR Bank # 390 (L) (Table 2B)
[21] = strain L = C. auris AR Bank # 0390 (Tables 1A/1B)

Compound: O=C(NNc1ccc(F)cc1F)c1cnccn1 [Compound 9g]
- MIC (C. auris AR Bank #387; [2]): 0.49 µg/mL (≈ 1.96 µM)
- MIC (C. auris AR Bank #388; [3]): 0.49 µg/mL (≈ 1.96 µM)
- MIC (C. auris AR Bank #381; [4]): 3.9 µg/mL (≈ 15.6 µM)
- MIC (C. auris AR Bank #386; [5]): 0.49 µg/mL (≈ 1.96 µM)
- MIC (C. auris AR Bank #385; [6]): 0.98 µg/mL (≈ 3.92 µM)
- MIC (C. auris AR Bank #383; [7]): 0.98 µg/mL (≈ 3.92 µM)
- MIC (C. auris AR Bank #389; [8]): 0.49 µg/mL (≈ 1.96 µM)
- MIC (C. auris AR Bank #382; [9]): 1.95 µg/mL (≈ 7.79 µM)
- MIC [1, 10]: 0.98 µg/mL (≈ 3.92 µM)
- MIC [1, 11]: 0.98 µg/mL (≈ 3.92 µM)

Compound: O=C(NNc1ccc(F)cc1)c1ccc(F)cn1 [Compound 3d]
- MIC (C. auris AR Bank #387; [12]): 0.98 μg/mL^−1
- MIC (C. auris AR Bank #388; [13]): 1.95 μg/mL^−1
- MIC (C. auris AR Bank #381; [14]): 1.95 μg/mL^−1
- MIC (C. auris AR Bank #386; [15]): 1.95 μg/mL^−1
- MIC (C. auris AR Bank #385; [16]): 0.98 μg/mL^−1
- MIC (C. auris AR Bank #383; [17]): 1.95 μg/mL^−1
- MIC (C. auris AR Bank #389; [18]): 1.95 μg/mL^−1
- MIC (C. auris AR Bank #382; [19]): 0.98 μg/mL^−1
- MIC [1, 20]: 3.9 μg/mL^−1
- MIC [1, 21]: 0.98 μg/mL^−1

Compound: O=C(NNc1cccc(F)c1)c1cccc(Br)n1 [Compound 6a]
- MIC [1, 21]: 1.95 μg/mL^−1

Compound: O=C(NNc1ccc(F)cc1F)c1cccc(F)n1 [Compound 5g]
- MIC (C. auris AR Bank #387; Candidozyma auris, C. auris AR Bank # 387 (Table 2B), read-out: MIC): 1.95 µg/mL (≈ 7.3 µM)
- MIC (C. auris AR Bank #388; Candidozyma auris, C. auris AR Bank # 388 (Table 2B), read-out: MIC): 3.9 µg/mL (≈ 14.6 µM)
- MIC (C. auris AR Bank #381; Candidozyma auris, C. auris AR Bank # 381 (Table 2B), read-out: MIC): 3.9 µg/mL (≈ 14.6 µM)
- MIC (C. auris AR Bank #386; Candidozyma auris, C. auris AR Bank # 386 (Table 2B), read-out: MIC): 1.95 µg/mL (≈ 7.3 µM)
- MIC (C. auris AR Bank #385; Candidozyma auris, C. auris AR Bank # 385 (Table 2B), read-out: MIC): 3.9 µg/mL (≈ 14.6 µM)
- MIC (C. auris AR Bank #383; Candidozyma auris, C. auris AR Bank # 383 (Table 2B), read-out: MIC): 1.95 µg/mL (≈ 7.3 µM)
- MIC (C. auris AR Bank #389; Candidozyma auris, C. auris AR Bank # 389 (Table 2B), read-out: MIC): 3.9 µg/mL (≈ 14.6 µM)
- MIC (C. auris AR Bank #382; Candidozyma auris, C. auris AR Bank # 382 (Table 2B), read-out: MIC): 0.98 µg/mL (≈ 3.67 µM)
- MIC ([1]; Candidozyma auris, C. auris AR Bank # 390 (L) (Table 2B), read-out: MIC): 3.9 µg/mL (≈ 14.6 µM)
- MIC [1, 11]: 3.9 µg/mL (≈ 14.6 µM)

Compound: O=C(NNc1ccc(F)cc1)c1ccccn1 [Compound 2d]
- MIC (C. auris AR Bank #387; [2]): 0.98 µg/mL (≈ 4.24 µM)
- MIC (C. auris AR Bank #388; [3]): 0.98 µg/mL (≈ 4.24 µM)
- MIC (C. auris AR Bank #381; [4]): 0.98 µg/mL (≈ 4.24 µM)
- MIC (C. auris AR Bank #386; [5]): 0.49 µg/mL (≈ 2.12 µM)
- MIC (C. auris AR Bank #385; [6]): 0.98 µg/mL (≈ 4.24 µM)
- MIC (C. auris AR Bank #383; [7]): 1.95 µg/mL (≈ 8.43 µM)
- MIC (C. auris AR Bank #389; [8]): 0.49 µg/mL (≈ 2.12 µM)
- MIC (C. auris AR Bank #382; [9]): 1.95 µg/mL (≈ 8.43 µM)
- MIC [1, 10]: 0.98 µg/mL (≈ 4.24 µM)
- MIC [1, 11]: 0.98 µg/mL (≈ 4.24 µM)

Compound: COc1ccc(NNC(=O)c2ccc(F)cn2)cc1 [Compound 3f]
- MIC [1, 21]: 0.49 μg/mL^−1

Compound: O=C(NNc1ccc(Cl)cc1)c1ncc(F)cc1F [Compound 7e]
- MIC (C. auris AR Bank #387; [12]): 15.6 μg/mL^−1
- MIC (C. auris AR Bank #388; [13]): 7.8 μg/mL^−1
- MIC (C. auris AR Bank #381; [14]): 7.8 μg/mL^−1
- MIC (C. auris AR Bank #386; [15]): 15.6 μg/mL^−1
- MIC (C. auris AR Bank #385; [16]): 7.8 μg/mL^−1
- MIC (C. auris AR Bank #383; [17]): 3.9 μg/mL^−1
- MIC (C. auris AR Bank #389; [18]): 7.8 μg/mL^−1
- MIC (C. auris AR Bank #382; [19]): 15.6 μg/mL^−1
- MIC [1, 20]: 7.8 μg/mL^−1
- MIC [1, 21]: 7.8 μg/mL^−1

Compound: O=C(NNc1ccc(Cl)cc1)c1cnccn1 [Compound 9e]
- MIC (C. auris AR Bank #387; C. auris AR Bank #387): 13.6 μg/mL^−1
- MIC (C. auris AR Bank #388; C. auris AR Bank #388): 7.8 μg/mL^−1
- MIC (C. auris AR Bank #381; C. auris AR Bank #381): 7.8 μg/mL^−1
- MIC (C. auris AR Bank #386; C. auris AR Bank #386): 7.8 μg/mL^−1
- MIC (C. auris AR Bank #385; C. auris AR Bank #385): 31.3 μg/mL^−1
- MIC (C. auris AR Bank #383; C. auris AR Bank #383): 3.9 μg/mL^−1
- MIC (C. auris AR Bank #389; C. auris AR Bank #389): 7.8 μg/mL^−1
- MIC (C. auris AR Bank #382; C. auris AR Bank #382): 13.6 μg/mL^−1
- MIC ([1]; C. auris AR Bank #390 (L)): 3.9 μg/mL^−1
- MIC [1, 21]: 3.9 μg/mL^−1

Source: patent US20240425464A1, “Substituted Monohydrazides as Potent Antifungal Agents” (University of Kentucky Research Foundation, priority 2023, published 2024)
